# Where two headings read alike, the source gives them in different places.
# Legend:
# PBMC toxicity by CCK8 = assay type: cell-based, human; conditions: human, PBMCs isolated from healthy donors, CCK-8, 20.0 µM, relative to control cells; read-out: PBMC cell viability (%)
# Description: (§1) And same time, the toxicity of the compounds on the normal human cell line PBMC was also tested by CCK8.
# (§2) The NCI-H929 cells were cultured in RPMI-1640 media supplemented with 10% FBS, 100 U/mL penicillin–100 µg/mL streptomycin, and 0.05 mM 2-mercaptoethanol. The U2932 cells were cultured in RPMI-1640 media supplemented with 10% FBS and 100 U/mL penicillin–100 µg/mL streptomycin. The PBMCs were isolated from healthy donors.
# (§3) For the cell proliferation experiments, 1.0 × 10^5 cells were first seeded in the 96-well culture plate and incubated overnight. Compounds tested were serially diluted in the corresponding media and then added to the well of 96-well plate in a final volume of 100 µL and then the cells were incubated for 72 h at 37 °C. Finally, 10 µL of CCK-8 was added to each well for 1–4 h, and the absorbance values were read at 450 nm in a Microplate Reader (ELx-800, BioTek Instruments, Winooski, VT). The IC50 value for each compound was calculated at the basis of the number of viable cells using GraphPad Prism 5.0 software (San Diego, CA).
# NCI-H929 cells [1] = experiment: CCK8 antiproliferative assay, NCI-H929; conditions: Homo sapiens, NCI-H929, 72 h, read-out: IC50 (μM ± SD) NCI-H929
# U2932 cells = experiment: CCK8 antiproliferative assay, U2932; conditions: Homo sapiens, U2932, 72 h, read-out: IC50 (μM ± SD) U2932
# TNF-α = TNF-α ELISA assay in LPS stimulated PBMC; assay type: cell-based, human; conditions: read-out: IC50 (μM ± SD) TNF-α
# Description: Previous studies have reported IMiDs stimulate immunomodulatory activity main through the TNF-α inhibition[9]^,[10]. In this test, the effect of the synthesised compounds on TNF-α in LPS stimulated human peripheral blood mononuclear cell (PBMC) was evaluated (Table 1). The SAR of TNF-α inhibition was similar to the antiproliferative activity. […]
# PBMC (4 × 10^5 cells) were incubated in the 96-well culture plate and stimulated by 2 µg/mL LPS. The level of TNF-α was checked by standard ELISA (R&D Systems, Minneapolis, MN). Analysis was performed by following the manufacture’s procedure for each ELISA kit. The test samples were assessed in triplicate and absorbance was taken on a Microplate Reader (ELx-800, BioTek Instruments, Winooski, VT) at 450 nm. The IC50 value for each compound was calculated by comparison with standard curves with purified recombinant TNF-α using GraphPad Prism 5.0 software (San Diego, CA).
# NCI-H929 cells [2] = experiment: Cell cycle analysis (PI staining, flow cytometry); assay type: cell-based; conditions: 48 h; for cell cycle arrest: NCI-H929, 0.5-5.0 µM
# Description: The NCI-H929 cells were treated with each of the compounds at 0, 0.5, 1.0, and 5.0 µM for 48 h. Following this treatment, the PI-stained cells were analysed and the results are outlined in Figure 5.
# (§4) Flow cytometry was used to analyse effects of the compounds tested on cell cycle (PI staining) and apoptosis (Annexin V-FITC and PI staining). Stained cells were analysed on a Flow Cytometer (BD Biosciences, Franklin Lakes, NJ), and the data were analysed using the Cell Quest software.
# IKZF3 = target: T1, IKZF3 (Homo sapiens, UniProt Q96SW2+Q9UKT9); experiment: Immunoblot analysis of IKZF3 degradation in NCI-H929 cells; assay type: cell-based; conditions: for IKZF3 degradation: 72 h, immunoblot
# T1 construct: endogenous in cells; host or cells: NCI-H929
# T1 sequence (Q9UKT9 whole entry): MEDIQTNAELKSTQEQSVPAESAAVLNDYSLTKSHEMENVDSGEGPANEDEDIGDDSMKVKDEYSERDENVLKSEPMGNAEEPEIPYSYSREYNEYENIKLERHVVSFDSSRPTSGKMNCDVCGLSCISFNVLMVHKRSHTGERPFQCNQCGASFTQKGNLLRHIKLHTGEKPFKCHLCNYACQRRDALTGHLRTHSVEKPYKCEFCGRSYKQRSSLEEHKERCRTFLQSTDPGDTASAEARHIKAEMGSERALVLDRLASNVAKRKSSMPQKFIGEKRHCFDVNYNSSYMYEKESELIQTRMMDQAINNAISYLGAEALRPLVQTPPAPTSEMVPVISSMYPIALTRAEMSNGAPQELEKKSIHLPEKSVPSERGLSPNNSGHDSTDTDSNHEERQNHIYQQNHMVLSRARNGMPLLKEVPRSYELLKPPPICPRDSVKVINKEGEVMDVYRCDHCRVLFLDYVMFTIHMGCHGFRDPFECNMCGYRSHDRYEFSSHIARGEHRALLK
# T1 sequence (Q96SW2 whole entry): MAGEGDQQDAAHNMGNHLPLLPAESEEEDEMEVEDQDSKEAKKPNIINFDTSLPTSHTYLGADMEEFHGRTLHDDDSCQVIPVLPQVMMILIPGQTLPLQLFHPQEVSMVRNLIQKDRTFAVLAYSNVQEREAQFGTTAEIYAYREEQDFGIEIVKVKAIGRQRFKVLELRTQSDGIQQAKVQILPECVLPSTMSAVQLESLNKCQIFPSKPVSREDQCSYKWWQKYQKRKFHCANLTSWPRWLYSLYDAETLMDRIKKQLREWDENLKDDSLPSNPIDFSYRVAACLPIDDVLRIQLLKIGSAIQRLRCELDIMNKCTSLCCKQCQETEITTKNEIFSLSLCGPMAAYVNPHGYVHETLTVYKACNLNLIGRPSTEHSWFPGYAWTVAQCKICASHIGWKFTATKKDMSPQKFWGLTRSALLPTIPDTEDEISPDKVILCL
# T1 sequence (Q16531 whole entry partner): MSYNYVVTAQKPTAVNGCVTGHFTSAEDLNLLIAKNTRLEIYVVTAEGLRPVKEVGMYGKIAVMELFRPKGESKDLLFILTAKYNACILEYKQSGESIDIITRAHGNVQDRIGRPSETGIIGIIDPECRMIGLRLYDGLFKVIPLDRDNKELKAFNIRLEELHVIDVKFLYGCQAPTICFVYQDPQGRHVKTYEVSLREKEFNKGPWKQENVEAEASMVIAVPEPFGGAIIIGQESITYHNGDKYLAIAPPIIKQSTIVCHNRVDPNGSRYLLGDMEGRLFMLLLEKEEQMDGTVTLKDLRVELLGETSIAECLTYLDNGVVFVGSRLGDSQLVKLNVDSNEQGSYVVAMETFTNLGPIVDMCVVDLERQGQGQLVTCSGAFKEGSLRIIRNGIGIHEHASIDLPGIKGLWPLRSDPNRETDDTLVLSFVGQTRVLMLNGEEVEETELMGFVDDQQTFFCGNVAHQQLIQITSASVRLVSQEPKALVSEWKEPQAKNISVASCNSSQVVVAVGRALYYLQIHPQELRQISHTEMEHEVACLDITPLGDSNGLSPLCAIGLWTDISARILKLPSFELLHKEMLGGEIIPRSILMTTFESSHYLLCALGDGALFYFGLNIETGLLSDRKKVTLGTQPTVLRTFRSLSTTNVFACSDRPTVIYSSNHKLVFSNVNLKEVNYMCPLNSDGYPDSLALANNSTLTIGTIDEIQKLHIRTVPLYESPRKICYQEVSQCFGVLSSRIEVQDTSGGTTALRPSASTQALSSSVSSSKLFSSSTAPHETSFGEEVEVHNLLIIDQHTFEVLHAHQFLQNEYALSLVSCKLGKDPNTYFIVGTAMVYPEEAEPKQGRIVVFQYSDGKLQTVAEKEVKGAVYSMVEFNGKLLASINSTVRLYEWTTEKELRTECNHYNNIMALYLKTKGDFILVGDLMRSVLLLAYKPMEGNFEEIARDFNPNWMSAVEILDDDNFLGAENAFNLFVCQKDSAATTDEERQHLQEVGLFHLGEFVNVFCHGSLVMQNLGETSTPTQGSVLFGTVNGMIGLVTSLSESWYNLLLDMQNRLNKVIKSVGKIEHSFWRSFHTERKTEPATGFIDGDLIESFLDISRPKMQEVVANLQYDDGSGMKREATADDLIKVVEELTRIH
# Description: (§5) Subsequent proteasome degradation of these transcription factors kills MM cells. Accordingly, we used the immunoblot assay to measure the IKZF1 and IKZF3 proteins degradation in the current study.
# (§6) For immunoblot analysis, NCI-H929 cells were treated with the tested compounds at the indicated concentrations for various times, collected, and lysed in RIPA buffer in the presence of protease inhibitors on ice for 30 min. The protein from each sample was quantitated using a BCA protein assay kit, and was separated by SDS-PAGE and then transferred onto the PVDF membrane. The membranes were probed with specific primary antibodies at 4 °C overnight, followed by incubation with IRDye®680 goat anti-mouse secondary antibodies. The signals were acquired using the Odyssey Infrared Imaging System (LI-COR, Lincoln, NE).
# NCI-H929 cells [3] = experiment: Annexin V-FITC/PI apoptosis assay; assay type: cell-based; conditions: for B1: necrotic cells / B2: late apoptosis / B3: live cells / B4: early apoptosis: 72 h; for apoptotic events: 72 h (early + late apoptosis)
# Description: The IMiDs were reported to induce apoptosis through activation of caspase 8 in MM cells. Accordingly, the ability of the selected compound 10a to induce apoptosis in NCI-H929 cells was investigated using annexin V fluorescein isothiocyanate (FITC)/propidium iodide (PI) staining assay.
# as §4
# PBMC = PBMC toxicity by CCK8; assay type: cell-based, human
# Description: as §1, §2, §3
# IKZF1 = target: T2, IKZF1 (Homo sapiens, UniProt Q13422+Q96SW2); experiment: Immunoblot analysis of IKZF1 degradation in NCI-H929 cells; assay type: cell-based; conditions: for IKZF1 degradation: 72 h, immunoblot
# T2 construct: endogenous in cells; host or cells: NCI-H929
# T2 sequence (Q13422 whole entry): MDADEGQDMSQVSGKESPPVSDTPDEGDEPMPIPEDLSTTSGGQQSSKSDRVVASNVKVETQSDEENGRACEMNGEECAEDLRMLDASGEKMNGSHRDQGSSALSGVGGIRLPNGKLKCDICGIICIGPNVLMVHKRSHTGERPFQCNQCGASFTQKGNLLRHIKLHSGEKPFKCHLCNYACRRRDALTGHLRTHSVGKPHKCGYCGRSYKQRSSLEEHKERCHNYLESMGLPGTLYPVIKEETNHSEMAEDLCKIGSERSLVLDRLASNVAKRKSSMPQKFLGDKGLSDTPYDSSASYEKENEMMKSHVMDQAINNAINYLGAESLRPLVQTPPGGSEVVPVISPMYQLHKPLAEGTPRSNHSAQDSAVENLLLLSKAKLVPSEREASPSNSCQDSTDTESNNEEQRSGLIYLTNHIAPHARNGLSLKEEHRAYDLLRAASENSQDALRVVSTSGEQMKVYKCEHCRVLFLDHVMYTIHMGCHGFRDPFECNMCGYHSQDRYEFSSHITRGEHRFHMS
# T2 sequence (Q96SW2 whole entry): as the sequence (Q96SW2 whole entry) above
# T2 sequence (Q16531 whole entry partner): as the sequence (Q16531 whole entry partner) above
# Description: as §5, §6
# [4] = target: T3, CRBN (His-tagged CRBN-DDB1 complex) (Homo sapiens, UniProt Q96SW2); experiment: TR-FRET CRBN binding assay (displacement of Cy5-labeled thalidomide)
# T3 construct: purchased Abcam ab235611
# T3 sequence (Q96SW2 whole entry): as the sequence (Q96SW2 whole entry) above
# T3 sequence (Q16531 whole entry partner): as the sequence (Q16531 whole entry partner) above
# Description: His-tagged CRBN-DDB1 complex (Abcam, Cambridge, UK, catalogue no. ab235611) 60 nM was mixed with Eu-anti-His Tag antibody 3 nM (Thermo Fisher, Waltham, MA, catalogue no. PV5596) in a final buffer containing 20 mM HEPES pH 7.0, 150 mM NaCl, and 0.005% Tween-20. The solution was then mixed with Cy5-labeled thalidomide 10 nM and various concentrations of compounds, and then was incubated at room temperature for 1 h. FRET signals were measured on an EnVision plate reader by exciting at 340 nm and recording emission at both 615 nm (no FRET control) and 665 nm (FRET signals) with a 60 µs delay. […] Quantitative loss of FRET efficiency as a function of compound concentrations was fitted by GraphPad Prism 5.0 (San Diego, CA) and calculated the IC50.
# [5] = TNF-α level in LPS stimulated human PBMC, ELISA
# [6] = NCI-H929, indicated concentrations
# [7] = NCI-H929, 100 nM bortezomib in combination with compound 10a (10 µM)
Compound,"viability at 72 h, 20 µM (PBMC toxicity by CCK8) [%]",IC50 (NCI-H929 cells [1]) [µM],IC50 (U2932 cells) [µM],IC50 (TNF-α; [5]) [µM],further results
"O=C1CCC(N2C(=O)Cc3ccccc3C2=O)C(=O)N1 (stereo not shown) [Compound 3a, 2-(2,6-dioxopiperidin-3-yl)isoquinoline-1,3(2H,4H)-dione]",99,32.2 ± 1.42,> 50,> 50,
"COc1ccc2c(c1)C(=O)N(C1CCC(=O)NC1=O)C(=O)C2 (stereo not shown) [Compound 3b, 2-(2,6-Dioxopiperidin-3-yl)-7-methoxyisoquinoline-1,3(2H,4H)-dione]",98,28.2 ± 0.92,36.4 ± 1.22,43.8 ± 1.88,
"COc1ccc2c(c1)C(=O)N(C1CCC(=O)NC1=O)C(=O)C2(C)C (stereo not shown) [Compound 3c, 2-(2,6-Dioxopiperidin-3-yl)-7-methoxy-4,4-dimethylisoquinoline-1,3(2H,4H)-dione]",100,> 50,> 50,> 50,
"O=C1CCC(N2C(=O)Cc3cccc([N+](=O)[O-])c3C2=O)C(=O)N1 (stereo not shown) [Compound 9a, 2-(2,6-dioxopiperidin-3-yl)-8-nitroisoquinoline-1,3(2H,4H)-dione]",94,9.26 ± 0.56,12.2 ± 0.58,5.48 ± 1.04,
"Nc1cccc2c1C(=O)N(C1CCC(=O)NC1=O)C(=O)C2 (stereo not shown) [Compound 10a, 8-amino-2-(2,6-dioxopiperidin-3-yl)isoquinoline-1,3(2H,4H)-dione]",94,2.25 ± 0.09,5.86 ± 0.12,0.76 ± 0.08,"cells in G0/G1 cell cycle (NCI-H929 cells [2]; NCI-H929, 5.0 µM): 42.9%; cell cycle arrest (NCI-H929 cells [2]): induce G0/G1 cell cycle arrest; IKZF3 degradation (IKZF3; NCI-H929, 10 µM): completely degrade; IKZF3 degradation (IKZF3; [6]): induced the degradation; B1: necrotic cells (NCI-H929 cells [3]; NCI-H929, 1 μM): 0.1%; B2: late apoptosis (NCI-H929 cells [3]; NCI-H929, 1 μM): 15.6%; B3: live cells (NCI-H929 cells [3]; NCI-H929, 1 μM): 70.4%; B4: early apoptosis (NCI-H929 cells [3]; NCI-H929, 1 μM): 13.9%; apoptotic events (NCI-H929 cells [3]; NCI-H929, 1 µM): 29.5%; B1: necrotic cells (NCI-H929 cells [3]; NCI-H929, 5 μM): 0.2%; B2: late apoptosis (NCI-H929 cells [3]; NCI-H929, 5 μM): 21.3%; B3: live cells (NCI-H929 cells [3]; NCI-H929, 5 μM): 65.1%; B4: early apoptosis (NCI-H929 cells [3]; NCI-H929, 5 μM): 13.3%; apoptotic events (NCI-H929 cells [3]; NCI-H929, 5 µM): 34.6%; toxicity to normal human cell line PBMC (PBMC; CCK8, 20 µM): nearly no toxicity; PBMC cell viability (%) (PBMC; CCK-8, 20.0 µM, relative to control cells, 20 µM): 99%; IKZF1 degradation (IKZF1; NCI-H929, 10 µM): completely degrade; IKZF1 degradation (IKZF1; [6]): induced the degradation; IC50 [4]: 4.83 µM"
"Nc1ccc2c(c1)C(=O)N(C1CCC(=O)NC1=O)C(=O)C2 (stereo not shown) [Compound 10b, 7-Amino-2-(2,6-dioxopiperidin-3-yl)isoquinoline-1,3(2H,4H)-dione]",98,16.3 ± 0.56,20.6 ± 0.82,21.3 ± 1.26,
"Nc1ccc2c(c1)CC(=O)N(C1CCC(=O)NC1=O)C2=O (stereo not shown) [Compound 10c, 6-Amino-2–(2,6-dioxopiperidin-3-yl)isoquinoline-1,3(2H,4H)-dione]",100,18.7 ± 0.83,26.3 ± 0.76,38.5 ± 1.38,
"Nc1cccc2c1CC(=O)N(C1CCC(=O)NC1=O)C2=O (stereo not shown) [Compound 10d, 5-Amino-2–(2,6-dioxopiperidin-3-yl)isoquinoline-1,3(2H,4H)-dione]",99,> 50,> 50,> 50,
"CC1(C)C(=O)N(C2CCC(=O)NC2=O)C(=O)c2c(N)cccc21 (stereo not shown) [Compound 12a, 8-Amino-2–(2,6-dioxopiperidin-3-yl)-4,4-dimethylisoquinoline-1,3(2H,4H)-dione]",100,> 50,> 50,> 50,
"Nc1cccc2c1C(=O)N(C1CCC(=O)NC1=O)C(=O)C21CC1 (stereo not shown) [Compound 12b, 8′-Amino-2′-(2,6-dioxopiperidin-3-yl)-1′H-spiro[cyclopropane-1,4′-isoquinoline]-1′,3′(2′H)-dione]",100,> 50,> 50,> 50,
"Nc1cccc2c1CN(C1CCC(=O)NC1=O)C2=O (stereo not shown) [Lenalidomide, reference compound]",86,1.12 ± 0.06,3.24 ± 0.11,,"cell cycle arrest (NCI-H929 cells [2]): induce G0/G1 cell cycle arrest; B1: necrotic cells (NCI-H929 cells [3]; NCI-H929, 1 μM): 0.2%; B2: late apoptosis (NCI-H929 cells [3]; NCI-H929, 1 μM): 18.1%; B3: live cells (NCI-H929 cells [3]; NCI-H929, 1 μM): 68.6%; B4: early apoptosis (NCI-H929 cells [3]; NCI-H929, 1 μM): 13.1%; apoptotic events (NCI-H929 cells [3]; NCI-H929, 1 µM): 31.2%; B1: necrotic cells (NCI-H929 cells [3]; NCI-H929, 5 μM): 0.1%; B2: late apoptosis (NCI-H929 cells [3]; NCI-H929, 5 μM): 20.8%; B3: live cells (NCI-H929 cells [3]; NCI-H929, 5 μM): 56.0%; B4: early apoptosis (NCI-H929 cells [3]; NCI-H929, 5 μM): 23.1%; apoptotic events (NCI-H929 cells [3]; NCI-H929, 5 µM): 43.9%; IC50 (TNF-α; Homo sapiens, PBMC): 0.13 ± 0.02 µM"
"CC(C)C[C@H](NC(=O)[C@H](Cc1ccccc1)NC(=O)c1cnccn1)B(O)O [bortezomib, reference compound]",,,,,effect on IKZF3 degradation induced by compound 10a (IKZF3; [7]): can block the degradation; effect on IKZF1 degradation induced by compound 10a (IKZF1; [7]): can block the degradation
